The test system of data set [1] is normal human prostate fibroblast (HPrF) cells.
Method: (§4) To determine the selectivity of LHRH-MTX, we performed a MTT experiment with normal human prostate fibroblast (HPrF) cells.
(§5) HPrF cells were exposed to MTX or [DLys^6]-LHRH-MTX at 0.015-1000 μmol/L. Growth inhibition was determined by MTT assay.
(§6) PC-3 cells and HPrF cells were maintained in T-media (Gibco Invitrogen, CA) supplemented with 10% fetal bovine serum (FBS) (Gibco Invitrogen, CA) and 1% penicillin/streptomycin (Cellgro Mediatech, nc., VA). […]
(§7) The cytotoxic effect of MTX, [Dlys^6]-LHRH, and [Dlys^6]-LHRH-MTX was evaluated using the methylthiazol tetrazolium (MTT) assay (Sigma Aldrich, MO), which determines the number of viable cells from the formazan crystals produced by metabolic activity[26][33][34]. […] The absorption at 570 nm was recorded with an ELISA plate reader (Bio-Rad, Microplate Reader 550 and the growth inhibitory (GI) rate was calculated according to the following equation: GI(%) = 100 − [T − B)/(C − B) × 100].
Another data set relates to PC-3 tumor xenografts. As to the kind of experiment: In vivo anti-tumor activity, PC-3 tumor xenografts. On the set-up: species or system athymic BALB/c nude mice. Particulars: for effect on tumor volume / Mean tumor weight / Mean tumor volume, Final: end of study; for Inhibition ratio of tumor weight / Inhibition ratio of tumor volume: against saline; for Inhibition ratio of tumor weight / Inhibition ratio of tumor volume / Mean tumor volume, Initial / Mean tumor weight / Mean tumor volume, Final / Tumor volume doubling time: n = 10; for Inhibition ratio of tumor volume / Tumor volume doubling time: i.v. twice weekly for 4 weeks; for Mean tumor volume, Initial: baseline, nude mice with PC-3 xenografts; for Mean tumor volume, Initial / Mean tumor weight / Mean tumor volume, Final: means ± SD; for Mean tumor volume, Final: i.v. tail vein twice weekly for 4 weeks; for Tumor volume doubling time: saline control 6.13 days. The method, then: Four week-old male athymic BALB/c nude mice were obtained from Sino-British SIPPR/BK Laboratory Animal Ltd (Shanghai, China). The animals were housed in sterile cages under laminar flow hoods in a temperature-controlled room with a 12h light/12h dark schedule and were fed autoclaved chow and water ad libitum.
PC-3 cells were harvested from subconfluent cultures after a brief exposure to 0.25% trypsin and 0.2% EDTA. Trypsinization was stopped by adding medium containing 10% FBS. The cells were washed once in serum-free medium and resuspended in PBS. Only suspensions consisting of single cells with >90% viability were used for the injections. PC-3 cells (1 × 10^7) in 100 μL PBS suspended in Matrigel (0.1 mg, Collaborative Biomedical Products Becton Dickinson Labware, Bedford, MA) were injected subcutaneously into the interscapular area using a 27-gauge needle.
On day 21, after PC-3 cell implantation, mice bearing tumors […] were randomized into the following four treatment groups (n = 10): saline controls, MTX treatment, [Dlys^6]-LHRH-MTX treatment and MTX plus [Dlys^6]-LHRH treatment. Treatments were made in 100 μL PBS and were given intravenously by tail vein injection twice weekly for 4 weeks. The vehicle-treated group received an equivalent amount of PBS. Tumor volumes were measured with calipers and the body weights of the mice were measured twice a week. Tumor volumes were calculated with the following formula: V(mm^3) = length × width^2/2, where width represents the shortest measurement in millimeters. The animals were euthanized 7 days after the last treatment. Body weights, tumor weights and organ weights were recorded.

Data set [2] relates to prostate cancer cell lines (PC-3, DU145 and LNCaP). The experiment in a line: MTT cytotoxicity assay, prostate cancer cell lines as a group. Particulars: 24 h. The format is cell-based, human. On the procedure: (§1) The LNCaP cells were grown in RPMI 1640 medium(Gibco Invitrogen, CA) containing 10% FBS and 1% penicillin/streptomycin and the DU145 cells were grown in Eagle’s minimum essential medium (MEM) (Gibco Invitrogen, CA) with 2 mM L-glutamine and Earle’s BSS, 1.5 g/L sodium bicarbonate, 0.1mM non-essential amino acids, 1 mM sodium pyruvate, 10% FBS and 1% penicillin/streptomycin.
(§2) The cytotoxic effect of MTX, [Dlys^6]-LHRH, and [Dlys^6]-LHRH-MTX was evaluated using the methylthiazol tetrazolium (MTT) assay (Sigma Aldrich, MO), which determines the number of viable cells from the formazan crystals produced by metabolic activity.
(§3) In the equation, T represents the absorption value of the treatment group; C is the absorption value of the control (untreated) group; and B refers to the absorption value of the culture medium. IC50 values (μg/mL) were calculated with SPSS software. In a competition assay, Prostate cancer cells (5,000 per well) were separately incubated in 96-well plates in triplicate with [DLys^6]-LHRH–MTX alone and [DLys^6]-LHRH free peptide and [DLys^6]-LHRH–MTX together, and the cells were incubated for 24 hr. The plates were then analyzed with the MTT method.
On the technique in general: Tetrazolium dyes change colour on reduction, which living cells bring about.

For the next data set, the system named is LNCaP cells. As to the kind of experiment: MTT cytotoxicity assay, LNCaP cells. The format is cell-based. The conditions noted are these: Homo sapiens, 24 h treatment, means ± SD, n = 3. On the procedure:
as §1, §2, §3

Data set [3] deals with PC-3 cells. As to the kind of experiment: MTT cytotoxicity assay, PC-3 cells. The class given is cell-based. Particulars: Homo sapiens, 24 h treatment, means ± SD, n = 3.
For data set [4], the system named is PC-3 cells. As to the kind of experiment: Apoptosis analysis, Annexin V-FITC/PI staining, flow cytometry. The class given is cell-based, human. The conditions noted are these: 24 h; for late apoptotic/early necrotic (AV+/PI+) cells: quadrant B2; for early apoptotic (AV+/PI−) populations: quadrant B4. On the procedure: To quantitatively investigate apoptotic and early necrotic events in these treated cultures, the fluorescent probe Annexin V-FITC and PI were used, The presence of a apoptotic and early necrotic cells was then determined and quantified by flow cytometry analysis which clearly differentiated normal cells with low Annexin V-FITC and low PI staining, apoptotic cells with high Annexin V-FITC and low PI staining, necrotic cells with high Annexin V-FITC and high PI staining and cell debris with low Annexin VFITC and high PI staining.
Figure 4 Quantitative apoptotic measurement in PC-3 cells after treatment with [DLys^6]-LHRH-MTX and MTX, the concentration-dependent effects on apoptosis following treatment with MTX and [DLys^6]-LHRH-MTX for 24 at doses of 0.98 μmol/L and 3.91 μmol/L were determined by flow cytometry analysis. Results were expressed as a dot plot of Annexin V -FITC vs. PI. […]
To quantitatively evaluate the induction of apoptosis by flow cytometry, Annexin-V-FITC/PI staining was performed. Briefly, PC-3 cells were seeded in a 6-well culture plate at a density of 2 × 10^5 cells per well, and treated with various concentrations of MTX or [Dlys^6]-LHRH or [Dlys^6]-LHRH-MTX for 24 h. The cells were harvested and then stained with Annexin V-FITC/PI solution (1:1, v/v, […]) in the dark for 15 min at room temperature. After washing with PBS, the cell suspensions in buffer were gently vortexed, and analyzed within 1 h by flow cytometry (Beckton Dickinson, CA, […]).
Background: A flow cytometer gives signals particle by particle.

Data set [5] relates to normal human prostate fibroblast (HPrF) cells. As to the kind of experiment: cells.
Method: as §4, §5, §6, §7
The subject of a further data set is DU145 cells. As to the kind of experiment: MTT cytotoxicity assay, DU145 cells. The format is cell-based. Particulars: Homo sapiens, DU-145, 24 h treatment, means ± SD, n = 3. On the procedure: as §1, §2, §3

Marks after values point to notes of the source that are not given here.

As to [DLys^6]-LHRH, the “cytotoxicity against HPrF cells” value in data set [1] is recorded as “no cytotoxicity”. Besides, the “histology of tumor sections, hematoxylin/eosin” value with PC-3 tumor xenografts (PC-3 xenografts, Fig. 7) is “predominantly viable cells”. The “effect on tumor volume” value in the data set with PC-3 tumor xenografts (PC-3 xenografts) is “did not affect the tumor volume”. In the data set with PC-3 tumor xenografts, the “Inhibition ratio of tumor weight” value was 4.41%; the “Inhibition ratio of tumor volume” value worked out at 2.88%; the “Mean tumor volume, Initial” value came out at 62.49 ± 13.70 mm3; the Mean tumor weight came out at 1.95 ± 0.34 g. Further, in the data set with PC-3 tumor xenografts, the “Mean tumor volume, Final” value came out at 1784.58 ± 95.99 mm3 and the “Tumor volume doubling time” value is listed as 6.13 days. In addition, in the data set on PC-3 tumor xenografts (day 30, n = 10, Fig. 6), the “tumor burden” value is given as “unchanged”. Also, in data set [2], the “cytotoxicity against prostate cancer cell lines” value is given as “no cytotoxicity”.

`CN(Cc1cnc2nc(N)nc(N)c2n1)c1ccc(C(=O)N[C@@H](CCC(=O)O)C(=O)O)cc1` [MTX, Methotrexate] showed an IC50 in the data set with LNCaP cells of 9.68 ± 1.24 µM. In the data set with PC-3 cells [3], this molecule yielded an IC50 of 6.34 ± 1.01 µM. Besides, in the data set with PC-3 cells [4] (PC-3, 0.98 μmol/L), the “late apoptotic/early necrotic (AV+/PI+) cells” value amounted to 8.35% and the “early apoptotic (AV+/PI−) populations” value is reported as 15.38%. Further, in the data set on PC-3 cells [4] (PC-3, 3.91 μmol/L), the “late apoptotic/early necrotic (AV+/PI+) cells” value was 9.52% and the “early apoptotic (AV+/PI−) populations” value came out at 30.88%. Besides, the IC50 in data set [5] is 42.3 ± 7.25 µM. The “effect on tumor volume” value with PC-3 tumor xenografts (PC-3 xenografts) is recorded as “significant anti-tumor effects”. For the same molecule, in the data set with PC-3 tumor xenografts, the “Inhibition ratio of tumor weight” value is 59.90%; the “Inhibition ratio of tumor volume” value amounted to 61.88%; the “Mean tumor volume, Initial” value came to 63.38 ± 7.38 mm3; the Mean tumor weight was 0.82 ± 0.12 ^a g. Further, in the data set with PC-3 tumor xenografts, the “Mean tumor volume, Final” value is on record as 700.39 ± 36.48 ^a mm3 and the “Tumor volume doubling time” value amounted to 8.88 days. In the data set with DU145 cells, this molecule had an IC50 of 8.03 ± 1.29 µM.

Usually IC50 stands for the concentration at which inhibition is half-maximal.

Values taken from article PMC5032167, “A conjugate of methotrexate and an analog of luteinizing hormone releasing hormone shows increased efficacy against prostate cancer” (Scientific Reports, 2016).
